From publication PMC7896091, “Synthesis of novel phytol-derived γ-butyrolactones and evaluation of their biological activity” (Scientific Reports, 2021)

Tests used:
[1] = test system: albino mice; set-up: method as in PMID 20141879; conditions: cited from earlier work
[2] = test system: rats; set-up: method as in PMID 20141879; conditions: cited from earlier work
[3] = test system: caspase-3/7 in MV4-11 cells; experiment: Caspase-3/7 activity determination (Ac-DEVD-ACC substrate); type: cell-based, human; conditions: MV4-11, 75 µM, 72 h
Procedure: Caspase-3/7 activity determination was performed according to the protocol previously described. The MV4-11 cells were seeded at the density of 1 × 10^5 cells/mL of culture medium on 24-well plates (Sarstedt, Germany) to the final volume of 2 mL. The cells were exposed to the test compounds at concentrations 75 μM or campthothecin (0.05 μg/mL) as a positive control, for 72 h. After 72 h of the incubation, the cells were collected and centrifuged (5 min., 4 °C, 250×g). Cells were suspended in 50 µL of ice-cold lysis buffer (50 mM HEPES, 10% (w/v) sucrose, 150 mM NaCl, 2 mM EDTA, 1% (v/v) Triton X-100, pH 7.3, IIET, Poland) and incubated 30 min. at 4 °C. After the incubation, 40 µL of each sample was transferred to a white, 96-well plate (Corning, USA) containing 160 µL of the reaction buffer (20 mM HEPES, 10% sucrose, 100 mM NaCl, 1 mM EDTA, 10 mM DTT, 0.02% Trition X-100, pH 7.3) (IIET, Wroclaw, Poland) with 9 µM Ac-DEVD-ACC fluorogenic substrate (λex = 360 nm, λem = 460 nm). The fluorescence increase correlated with the caspase-3/7 level was continuously recorded at 37 °C for 120 min using a Biotek Synergy H4 (Biokom, Warsaw, Poland). Compounds were tested in duplicates in single experiment and each experiment was repeated at least three times independently. Results were normalized to the number of cells in each well and are reported as mean relative caspase-3/7 activity compared to untreated control sample ± SD.

Row | Compound | Lethal dose (LD50) [1] | Lethal dose (LD50) [2] [mg/kg] | Increase of caspase-3/7 activity compared to the control [3]
1 | 3,7,11,15-tetramethylhexadec-2-en-1-ol [Phytol (1), reference compound] | above 5 g/kg | > 10000 | –
2 | C=CC(C)(CCCC(C)CCCC(C)CCCC(C)C)CC(=O)O (stereo not shown) [compound 3, 3,7,11,15-tetramethyl-3-vinylhexadecanoic acid] | – | – | 3 times
3 | CC(C)CCCC(C)CCCC(C)CCC[C@]1(C)CC(=O)O[C@@H]1CCl (stereo in doubt) [compound 6, trans-5-Chloromethyl-4-methyl-4-(4′,8′,12′-trimethyltridecyl)dihydrofuran-2-one] | – | – | about 1.5 times
